Assay results published in ChEMBL document CHEMBL1141818, “Annonaceous acetogenins: recent progress” (J Nat Prod, 1999).
In brackets after ≈: the same amount, converted by molar mass.

How the values were obtained:
[1] = tested on: PC-3; assay: Cytotoxicity against human PC-3 cells; format: functional; settings: for EC50: Homo sapiens, PC-3, read-out: ED50 (the source's name)
[2] = tested on: A549; assay: Cytotoxicity against human A549 cells; format: functional; settings: for EC50: Homo sapiens, A549, read-out: ED50 (the source's name)
[3] = tested on: MCF7; assay: Cytotoxicity against human MCF7 cells; format: functional; settings: for EC50: Homo sapiens, MCF7, read-out: ED50 (the source's name)
[4] = tested on: HT-29; assay: Cytotoxicity against human HT-29 cells; format: functional; settings: for EC50: Homo sapiens, HT-29, read-out: ED50 (the source's name)
[5] = Toxicity in brine shrimp; format: organism-based; settings: artemia, in vivo
[6] = tested on: A498; assay: Cytotoxicity against human A-498 cells; format: functional; settings: for EC50: Homo sapiens, A498, read-out: ED50 (the source's name)
[7] = tested on: MIA PaCa-2; assay: Cytotoxicity against human MIA PaCa2 cells; format: functional; settings: for EC50: Homo sapiens, MIA PaCa-2, read-out: ED50 (the source's name)
[8] = tested on: Blattella germanica; assay: Ratio of LT50 for Blattella germanica Muncie fifth instars to LT50 for Blattella germanica Jwax fifth instars; format: functional
[9] = tested on: Blattella germanica; assay: Ratio of LT50 for Blattella germanica Muncie second instars to LT50 for Blattella germanica Jwax second instars; format: functional
[10] = tested on: HCT-8; assay: Cytotoxicity against human HCT8 cells; format: functional, cell-based

Compound | EC50 [1] | EC50 [2] | ED50 [3] | EC50 [4] | LC50 [5] | EC50 [6] | EC50 [7] | ED50 [4] | ED50 [2] | Ratio [8] | Ratio [9] | EC50 [3] | ED50 [7] | ED50 [1] | ED50 [6] | IC50 [10]
CCCCCCCCCCCCC(=O)C[C@@H]1C[C@@H](O)[C@@H](CC[C@H](O)[C@@H]2CC[C@@H](CCCCC[C@@H](O)CC3=C[C@H](C)OC3=O)O2)O1 [GONIOTRIOCIN] | 0.26 mg/L (≈ 0.408 µM) | 0.033 mg/L (≈ 0.0518 µM) | 3.3 ×10⁻⁵ ug/ml | 0.0012 mg/L (≈ 0.00188 µM) | 2.7 mg/L (≈ 4.24 µM) | 1.1 mg/L (≈ 1.73 µM) | 1.4 mg/L (≈ 2.2 µM) | – | – | – | – | – | – | – | – | –
CCCCCCCCCCCCCC[C@@H](O)[C@H]1CC[C@H]([C@H](O)CCCC[C@H](O)CCCCC[C@@H]2CC(CC(C)=O)C(=O)O2)O1 (mixture of isomers) | 0.057 mg/L | 0.014 mg/L | 7.6 ×10⁻⁴ ug/ml | – | 0.04 mg/L | 0.12 mg/L | 0.074 mg/L | 7.4 ×10⁻⁴ ug/ml | – | – | – | – | – | – | – | –
CCCCCCCCCC[C@H](O)[C@H]1CC[C@H]([C@H](O)CC[C@H](O)[C@@H]2CC[C@@H](CCCCC[C@@H](O)CC3=C[C@H](C)OC3=O)O2)O1 [TRILOBALICIN] | 0.98 mg/L (≈ 1.6 µM) | – | 1.6 ×10⁻⁷ ug/ml | 2.3 mg/L (≈ 3.77 µM) | 5.8 mg/L (≈ 9.49 µM) | 0.006 mg/L (≈ 0.00982 µM) | 0.28 mg/L (≈ 0.458 µM) | – | 5.8 ×10⁻⁸ ug/ml | – | – | – | – | – | – | –
CCCCCCCCCC[C@H](O)[C@H](O)CCCC[C@H]1CC[C@H]([C@H]2CC[C@H]([C@H](O)CCCCC[C@@H](O)CC3=C[C@H](C)OC3=O)O2)O1 [GLABRACIN A] | 1.1 mg/L (≈ 1.72 µM) | – | 4.2 ×10⁻⁶ ug/ml | – | 0.13 mg/L (≈ 0.203 µM) | 0.001 mg/L (≈ 0.00157 µM) | 1.8 mg/L (≈ 2.82 µM) | 5.7 ×10⁻⁶ ug/ml | 2.8 ×10⁻⁶ ug/ml | – | – | – | – | – | – | –
CCCCCCCCCC[C@@H](O)[C@@H]1CC[C@H]([C@H](O)CC[C@H](O)[C@@H]2CC[C@@H](CCCCCCC[C@@H](O)CC3=C[C@H](C)OC3=O)O2)O1 [SYLVATICIN] | – | – | – | – | – | – | – | – | – | 3.9 | 1.7 | – | – | – | – | –
CCCCCCCCCCCC[C@@H](O)[C@@H](O)CC[C@H](O)[C@@H]1CC[C@@H](C[C@@H](O)C[C@@H](O)CCC[C@@H](O)CC2=C[C@H](C)OC2=O)O1 [MURICOREACIN] | 0.025 mg/L (≈ 0.0398 µM) | 0.0023 mg/L (≈ 0.00366 µM) | – | 0.57 mg/L (≈ 0.906 µM) | 19 mg/L (≈ 30.2 µM) | 0.71 mg/L (≈ 1.13 µM) | 2.3 mg/L (≈ 3.66 µM) | – | – | – | – | 1.3 mg/L (≈ 2.07 µM) | – | – | – | –
CCCCCCCCCCCC[C@H](O)[C@H]1CC[C@H]([C@H](O)CCCC[C@H](O)CCCCCCC[C@@H](O)CC2=C[C@H](C)OC2=O)O1 [ANNOGLACIN A] | 0.002 mg/L (≈ 0.0032 µM) | 0.0053 mg/L (≈ 0.00848 µM) | 9.6 ×10⁻⁴ ug/ml | 0.0053 mg/L (≈ 0.00848 µM) | 0.49 mg/L (≈ 0.784 µM) | 0.9 mg/L (≈ 1.44 µM) | – | – | – | – | – | – | 5.1 ×10⁻⁷ ug/ml | – | – | –
CCCCCCCCCCCCCC[C@H]1O[C@@H]([C@H](O)CC[C@H](O)CCCCC[C@@H](O)CC2=C[C@H](C)OC2=O)CC[C@H]1O [PYRAGONICIN] | 0.12 mg/L (≈ 0.201 µM) | 2 mg/L (≈ 3.35 µM) | – | 2.8 mg/L (≈ 4.69 µM) | 0.9 mg/L (≈ 1.51 µM) | 0.13 mg/L (≈ 0.218 µM) | 0.058 mg/L (≈ 0.0972 µM) | – | – | – | – | 1.6 mg/L (≈ 2.68 µM) | – | – | – | –
CCCCCCCCCC[C@@H](O)[C@H]1CC[C@H]([C@H](O)CC[C@H](O)[C@@H]2CC[C@@H](CCCCC[C@@H]3CC(CC(C)=O)C(=O)O3)O2)O1 (stereo partly drawn) | 0.0011 mg/L (≈ 0.0018 µM) | 0.21 mg/L (≈ 0.344 µM) | – | > 1 mg/L | 3.3 mg/L (≈ 5.4 µM) | 0.21 mg/L (≈ 0.344 µM) | > 1 mg/L | – | – | – | – | > 1 mg/L | – | – | – | –
CCCCCCCCCCCC[C@@H](O)[C@H]1CC[C@H]([C@H](O)CCC[C@@H](O)[C@@H](O)CCCCC[C@@H](O)CC2=C[C@H](C)OC2=O)O1 [ANNOMURICIN E] | 0.15 mg/L (≈ 0.245 µM) | 0.11 mg/L (≈ 0.179 µM) | – | 0.67 mg/L (≈ 1.09 µM) | 18.4 mg/L (≈ 30 µM) | 1.4 mg/L (≈ 2.28 µM) | 0.24 mg/L (≈ 0.392 µM) | – | – | – | – | 0.15 mg/L (≈ 0.245 µM) | – | – | – | –
CC1(C)CNC(=NN=C(/C=C/c2ccc(C(F)(F)F)cc2)/C=C/c2ccc(C(F)(F)F)cc2)NC1 [HYDRAMETHYLNON] | – | – | – | – | – | – | – | – | – | 0.6 | 1 | – | – | – | – | –
CCCCCCCCCCCC[C@H](O)[C@@H](O)CC[C@H](O)[C@@H]1CC[C@@H](C[C@H](O)CCCCC[C@@H](O)CC2=C[C@H](C)OC2=O)O1 [ANNOPENTOCIN B] | 0.21 mg/L (≈ 0.343 µM) | 0.027 mg/L (≈ 0.0441 µM) | – | 1.6 mg/L (≈ 2.61 µM) | 0.11 mg/L (≈ 0.179 µM) | 0.38 mg/L (≈ 0.62 µM) | 0.16 mg/L (≈ 0.261 µM) | – | – | – | – | 3.6 mg/L (≈ 5.87 µM) | – | – | – | –
CCCCC[C@H](O)[C@H](O)CCC[C@H](O)[C@H]1CC[C@H]([C@H]2CC[C@H]([C@H](O)CCCCCCCCCCCCC3=C[C@H](C)OC3=O)O2)O1 (stereo in doubt; 91) [PURPUREDIOLIN] | – | – | 2.5 ×10⁻⁴ ug/ml | 0.0046 mg/L (≈ 0.0072 µM) | 0.43 mg/L (≈ 0.673 µM) | – | – | – | 1.6 µg/mL (≈ 2.5 µM) | – | – | – | 3 µg/mL (≈ 4.7 µM) | 1.1 mg/L (≈ 1.72 µM) | 1.5 mg/L (≈ 2.35 µM) | –
CCCCCCCCCCCC[C@@H](O)[C@H]1CC[C@H]([C@H](O)CCCCC(O)CCCCC[C@@H](O)CC2=C[C@@](C)(O)OC2=O)O1 (stereo partly drawn) [GONIODONIN] | – | – | – | – | – | – | – | – | – | – | – | – | – | – | – | < 10 mg/L
CCCCCCCCCC[C@@H](O)[C@H]1CC[C@H]([C@H]2CC[C@H]([C@H](O)CCCCCC(=O)CCCC[C@@H]3CC(CC(C)=O)C(=O)O3)O2)O1 (mixture of isomers) | 1.1 mg/L | 0.0057 mg/L | – | 0.004 mg/L | 0.67 mg/L | 0.46 mg/L | 1.2 mg/L | – | – | – | – | 0.26 mg/L | – | – | – | –
CCCCCCCCCC[C@@H](O)[C@H]1CC[C@H]([C@H](O)CCCC[C@H](O)CCCCCCC[C@@H](O)CC2=C[C@H](C)OC2=O)O1 [GLACIN A] | 0.0098 mg/L (≈ 0.0164 µM) | 1.5 mg/L (≈ 2.51 µM) | – | 2.3 mg/L (≈ 3.85 µM) | 0.11 mg/L (≈ 0.184 µM) | 1.3 mg/L (≈ 2.18 µM) | 0.0086 mg/L (≈ 0.0144 µM) | – | – | – | – | 0.0044 mg/L (≈ 0.00737 µM) | – | – | – | –
CCCCCCCCCCCC/C=C\CC[C@@H](O)[C@H](O)CCCCCCC(=O)CCCCCCCC1=C[C@H](C)OC1=O [ANNOJAHNIN] | 0.016 mg/L (≈ 0.0271 µM) | 1.5 mg/L (≈ 2.54 µM) | – | 0.059 mg/L (≈ 0.0998 µM) | 11 mg/L (≈ 18.6 µM) | 4.9 mg/L (≈ 8.29 µM) | 0.023 mg/L (≈ 0.0389 µM) | – | – | – | – | 2.8 mg/L (≈ 4.74 µM) | – | – | – | –
